# Patent US9096832B2, “Differentiation of human embryonic stem cells” (LifeScan, Inc., priority 2007, dated 2015)
# Test system: H9 embryonic stem cells
# Test: Microarray analysis of definitive endoderm stage cells on […] or MEFs +/- Wnt-3a (Table VI)
# Assay type: cell-based, human
# Settings: low serum, on MEFS
substance,measurement,setting,value
"Activin A: activin A (a member of the TGFβ superfamily), R&D Systems; 'w/o wnt' in Table VII = 100 ng/ml Activin A without Wnt3a","Intensity (log): Homo sapiens haptoglobin-related protein (HPR), mRNA",,−1.196
same,"Intensity (log): Homo sapiens homeobox protein goosecoid mRNA, complete cds",,1.894
same,"Intensity (log): Homo sapiens hypothetical protein FLJ10718 (FLJ10718), mRNA",,5.552
same,"Intensity (log): Homo sapiens hypothetical protein FLJ10970 (FLJ10970), mRNA",,3.02
same,"Intensity (log): Homo sapiens hypothetical protein FLJ11316 (FLJ11316), mRNA",,0.7553
same,"Intensity (log): Homo sapiens hypothetical protein FLJ22252 similar to SRY-box containing gene 17 (FLJ22252), mRNA",,4.5979
same,"Intensity (log): Homo sapiens lumican (LUM), mRNA",,0.9488
same,"Intensity (log): Homo sapiens mRNA for GATA-6, complete cds",,5.343
same,"Intensity (log): Homo sapiens mRNA for KIAA1409 protein, partial cds",,−1.032
same,Intensity (log): Homo sapiens mRNA; cDNA DKFZp434D0818 (from clone DKFZp434D0818),,−0.3056
same,Intensity (log): Homo sapiens mRNA; cDNA DKFZp586J0624 (from clone DKFZp586J0624); complete cds,,3.699
same,"Intensity (log): Homo sapiens presenilin stabilization factor b (PSF) mRNA, complete cds; alternatively spliced",,0.5675
same,"Intensity (log): Homo sapiens reserved (KCNK12), mRNA",,3.78
same,"Intensity (log): Homo sapiens retinoid X receptor, gamma (RXRG), mRNA",,−0.3204
same,"Intensity (log): Homo sapiens sema domain, immunoglobulin domain (Ig), short basic domain, secreted, (semaphorin) 3E (SEMA3E), mRNA",,1.276
same,"Intensity (log): Homo sapiens sema domain, seven thrombospondin repeats (type 1 and type 1-like), transmembrane domain (TM) and short cytoplasmic domain, (semaphorin) 5A (SEMA5A), mRNA",,1.487
same,"Intensity (log): Homo sapiens solute carrier family 21 (prostaglandin transporter), member 2 (SLC21A2), mRNA",,2.433
same,"Intensity (log): Homo sapiens type VI collagen alpha 2 chain precursor (COL6A2) mRNA, complete cds, alternatively spliced",,2.845
same,"Intensity (log): Homo sapiens, alpha-1 (VI) collagen",,−2.269
same,"Intensity (log): Homo sapiens, clone MGC: 4655, mRNA, complete cds",,2.476
same,"Intensity (log): Human (clone 8B1) Br-cadherin mRNA, complete cds",,−1.026
same,"Intensity (log): Human (clone HSY3RR) neuropeptide Y receptor (NPYR) mRNA, complete cds",,5.48
same,"Intensity (log): Human DNA sequence from clone RP1-181C24 on chromosome 6p11.1-12.2. Contains the 3 end of the BMP5 gene for bone morphogenetic protein 5, ESTs, STSs and GSSs",,−0.3731
same,"Intensity (log): Human Fritz mRNA, complete cds",,3.915
same,"Intensity (log): Human dipeptidyl peptidase IV (CD26) mRNA, complete cds",,−1.256
same,"Intensity (log): Human glycophorin HeP2 mRNA, partial cds",,0.2335
same,"Intensity (log): Human link protein mRNA, complete cds",,−1.263
same,Intensity (log): Human mRNA for alpha-1 type II collagen,,−0.3802
same,Intensity (log): Human mRNA for apolipoprotein AI (apo AI),,2.497
same,"Intensity (log): Human prostatic secretory protein 57 mRNA, complete cds",,−0.4077
same,Intensity (log): KIAA1462 protein,,0.4371
same,"Intensity (log): MCP-1 = monocyte chemotactic protein (human, aortic endothelial cells, mRNA, 661 nt)",,2.955
same,Intensity (log): Rho GDP dissociation inhibitor (GDI) alpha,,−2.582
same,"Intensity (log): WAS protein family, member 2",,−1.06
same,"Intensity (log): collagen, type IX, alpha 2",,2.935
same,"Intensity (log): collagen, type VI, alpha 1",,0.6042
same,"Intensity (log): hepatocyte nuclear factor 4, alpha",,0.4452
same,Intensity (log): homeo box HB9,,1.631
same,Intensity (log): hypothetical protein FLJ21032,,2.618
same,Intensity (log): hypothetical protein FLJ23091,,3.78
same,Intensity (log): microfibrillar-associated protein 4,,−0.6009
same,"Intensity (log): myristoylated alanine-rich protein kinase C substrate (MARCKS, 80K-L)",,0.3357
same,Intensity (log): neuropilin 1,,−1.9667
same,Intensity (log): noggin,,1.33
same,"Intensity (log): splicing factor, arginine serine-rich 5",,4.272
same,Intensity (log): stanniocalcin 1,,6.143
same,Intensity (log): ESTs,r13,−4.27
same,Intensity (log): ESTs,r16,−2.6475
same,"Intensity (log): solute carrier family 16 (monocarboxylic acid transporters), member 3",r20,0.279
same,"Intensity (log): Homo sapiens solute carrier family 16 (monocarboxylic acid transporters), member 3 (SLC16A3), mRNA",r30,1.724
same,Intensity (log): ESTs,r49,0.967
same,Intensity (log): glycophorin B (includes Ss blood group),r50,−0.1297
same,Intensity (log): ESTs,r62,−0.2374
same,"Intensity (log): Homo sapiens HNF-3beta mRNA for hepatocyte nuclear factor-3 beta, complete cds",r66,2.825
same,Intensity (log): ESTs,r81,−2.321
same,Intensity (log): ESTs,r92,0.926
same,Intensity (log): ESTs,r98,−2.206
same,Intensity (log): ESTs,r108,−1.825
same,"Intensity (log): Homo sapiens phorbolin-like protein MDS019 (MDS019), mRNA",r121,2.408
same,Intensity (log): ESTs,r129,0.4204
same,Intensity (log): ESTs,r136,3.522
same,Intensity (log): ESTs,r137,0.761
same,Intensity (log): ESTs,r142,1.433
same,Intensity (log): ESTs,r145,1.0501
same,"Intensity (log): Cluster Incl. AB028021: Homo sapiens HNF-3beta mRNA for hepatocyte nuclear factor-3 beta, complete cds",r165,4.117
same,Intensity (log): hypothetical protein FLJ23403,r205,−2.313
same,Intensity (log): matrix metalloproteinase 14 (membrane-inserted),r215,−0.5185
same,"Intensity (log): Homo sapiens glycophorin B (includes Ss blood group) (GYPB), mRNA",r218,0.1803
same,Intensity (log): ESTs,r234,3.913
same,Intensity (log): ESTs,r240,3.125
same,Intensity (log): ESTs,r241,−0.5703
same,Intensity (log): KIAA0878 protein,r250,4.789
same,Intensity (log): ESTs,r260,4.814
same,"Intensity (log): Homo sapiens matrix metalloproteinase 14 (membrane-inserted) (MMP14), mRNA",r270,−0.09689
same,Intensity (log): ESTs,r278,0.6202
same,Intensity (log): ESTs,r290,2.657
same,Intensity (log): ESTs,r301,3.372
same,Intensity (log): ESTs,r314,−0.2982
same,"Intensity (log): Homo sapiens hypothetical protein FLJ23403 (FLJ23403), mRNA",r315,−1.004
same,Intensity (log): ESTs,r319,−0.1895
same,"Intensity (log): Homo sapiens KIAA0878 protein (KIAA0878), mRNA",r332,5.654
same,Intensity (log): phorbolin-like protein MDS019,r340,0.5035
same,Intensity (log): ESTs,r347,3.749
same,Intensity (log): ESTs,r376,0.8249
same,Intensity (log): ESTs,r377,−1.364
